# Source: patent US6495688B2, “Deazapurine derivatives: a new class of CRF1 specific ligands” (Neurogen Corporation, priority 1995, dated 2002)
# Structures can show the parent of a compound that is named as a salt.
# Target: T1, CRF receptors (Homo sapiens, UniProt P34998)
# T1 sequence (P34998 24-415): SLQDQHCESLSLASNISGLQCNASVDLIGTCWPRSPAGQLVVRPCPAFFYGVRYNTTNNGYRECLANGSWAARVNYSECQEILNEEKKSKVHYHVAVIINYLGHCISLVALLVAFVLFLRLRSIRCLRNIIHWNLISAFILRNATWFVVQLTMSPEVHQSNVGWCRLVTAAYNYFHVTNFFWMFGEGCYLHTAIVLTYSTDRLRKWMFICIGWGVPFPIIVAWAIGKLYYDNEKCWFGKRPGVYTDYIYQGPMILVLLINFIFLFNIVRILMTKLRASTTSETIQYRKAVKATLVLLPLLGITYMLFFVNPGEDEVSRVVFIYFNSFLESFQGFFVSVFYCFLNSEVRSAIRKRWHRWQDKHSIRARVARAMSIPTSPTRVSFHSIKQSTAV
# Test: CRF receptor binding assay (125I-CRF displacement)
# Conditions: membrane preparation, 125I-CRF 100 pM, room temperature 2 hours
# Experimental: Assay for CRF Receptor Binding Activity
# CRF receptor binding was performed using a modified version of the assay described by Grigoriadis and De Souza (Biochemical, Pharmacological, and Autoradiographic Methods to Study Corticotropin-Releasing Factor Receptors. Methods in Neurosciences, Vol. 5, 1991). Membrane pellets containing CRF receptors were resuspended in 50 mM Tris buffer pH 7.7 containing 10 mM MgCl2 and 2 mM EGTA and centrifuged for 10 minutes at 48000 g. Membranes were washed again and brought to a final concentration of 1500 μg/ml in binding buffer (Tris buffer above with 0.1% BSA, 0.15 mM bacitracin and 0.01 mg/ml aprotinin.). For the binding assay, 100 ul of the membrane preparation was added to 96 well microtube plates containing 100 μl of ^125I-CRF (SA 2200 Ci/mmol, final concentration of 100 pM) and 50 μl of drug. Binding was carried out at room temperature for 2 hours. Plates were then harvested on a Brandel 96 well cell harvester and filters were counted for gamma emissions on a Wallac 1205 Betaplate liquid scintillation counter. Non specific binding was defined by 1 μM cold CRF. IC50 values were calculated with the non-linear curve fitting program RS/1 (BBN Software Products Corp., Cambridge, Mass.).
row,IC50,Compound
1,500 nM,"CCCCN(CC)c1ncnc2c(-c3c(C)cc(C)cc3C)cn(C)c12 [Compound 5, N-Butyl-N-Ethyl-5-methyl-7-(2,4,6trimethylphenyl)-5H-pyrrolo[3,2-d]pyrimidin-4-amine]"
2,110 nM,"CCCN(CC1CC1)c1ncnc2c(-c3c(C)cc(C)cc3C)cn(C)c12 [Compound 1, N-cyclopropylmethyl-N-propyl-5-methyl-7-(2,4,6-trimethylphenyl)-5H-pyrrolo[3,2-d]pyrimidin-4-amine]"

# Test system: not given
# Test: not given
# Conditions: not given
row,melting point,Compound
1,116 to 118 °C,"CCCN(CCC)c1ncnc2c(-c3c(C)cc(C)cc3C)cn(C)c12 [Compound 2, N,N-Dipropyl-5-methyl-7-(2,4,6trimethylphenyl)-5H-pyrrolo[3,2-d]pyrimidin-4-amine]"
2,126 to 128 °C,"CCCCN(CC)c1ncnc2c(-c3c(C)cc(C)cc3C)cn(C)c12 [Compound 5, N-Butyl-N-Ethyl-5-methyl-7-(2,4,6trimethylphenyl)-5H-pyrrolo[3,2-d]pyrimidin-4-amine]"
3,205 to 207 °C,"CCCN(CC1CC1)c1ncnc2c(-c3c(C)cc(C)cc3C)cn(C)c12 (as salt: HCl) [Compound 1, N-cyclopropylmethyl-N-propyl-5-methyl-7-(2,4,6-trimethylphenyl)-5H-pyrrolo[3,2-d]pyrimidin-4-amine]"
4,140 to 142 °C,"Cc1cc(C)c(-c2cn(C)c3c(N4CCCCCC4)ncnc23)c(C)c1 [Compound 7, 4-(1-Homopiperidinyl)-5-methyl-7-(2,4,6-trimethylphenyl)-5H-pyrrolo[3,2-d]pyrimidine]"
